Reference: US7658943B2, “Oral pharmaceutical composition for soft capsules containing vinorelbine and method of treatment” (R.P. Scherer Technologies, LLC, priority 2002, dated 2010)
Read-outs that look alike come from different tables or passages of the source.

Assays:
[1] = 5° C.±3° C., aqueous vinorelbine 10 mg/ml as base
Procedure: In this experiment, pure powder form vinorelbine was compared to soft capsule encapsulated vinorelbine liquid fill composition of the invention (Formula 1.). Coloration was measured at 5° C.±3° C. by ultraviolet absorbance at 420 nm of aqueous vinorelbine at 10 mg/ml expressed as vinorelbine base. […] Mean variation was calculated as from the difference between the average of the results at the per given analysis time and the average of the results at the initial time (t0) for several batches (3 batches for the vinorelbine powder, 3 batches for the 20 mg soft capsules, 4 batches for the 30 mg soft capsules, 3 batches for the 40 mg soft capsules, 3 batches for the 80 mg soft capsules.)

[2] = Storage stability: impurity content by HPLC; assay type: physicochemical; settings: 5° C.±3° C.
Procedure: The HPLC chromatographic method used included an assembly fitted with an automatic injector and variable wavelength UV detector set at 267 nm. The column was stainless steel with a length of 150 mm and diameter of 3.9 mm and filled with octadecylsilyl silica gel—300 Å—spherical, 5 μm. The mobile phase was carried out with sodium decanesulfonate (1.2217 g), phosphate buffer 0.05 M (pH=4.2) 380 ml, and methanol (620 ml), with a thermostatically-controlled column temperature of +40° C. and a mobile phase flow rate of 1 ml/min.
Each batch was stored over the analysis time at 5° C.±3° C.

Compound: CCC1=C[C@@H]2CN(C1)Cc1c([nH]c3ccccc13)[C@@](C(=O)OC)(c1cc3c(cc1OC)N(C)[C@H]1[C@@](O)(C(=O)OC)[C@H](OC(C)=O)[C@]4(CC)C=CCN5CC[C@]31[C@@H]54)C2 [Vinorelbine (powder), 3′,4′-didehydro-4′-deoxy-C′-norvincaleucoblastine]
- Color evolution (absorbance at 420 nm), max. variation (t0→analysis time) ([1]; 6 months): 0.012
- Color evolution (absorbance at 420 nm), mean variation (t0→analysis time) ([1]; 6 months): 0.006
- Color evolution (absorbance at 420 nm), max. variation (t0→analysis time) ([1]; 12 months): 0.015
- Color evolution (absorbance at 420 nm), mean variation (t0→analysis time) ([1]; 12 months): 0.013
- Color evolution (absorbance at 420 nm), max. variation (t0→analysis time) ([1]; 18 months): 0.025
- Color evolution (absorbance at 420 nm), mean variation (t0→analysis time) ([1]; 18 months): 0.017
- Color evolution (absorbance at 420 nm), max. variation (t0→analysis time) ([1]; 24 months): 0.041
- Color evolution (absorbance at 420 nm), mean variation (t0→analysis time) ([1]; 24 months): 0.029
- Impurity content, max. variation (t0→analysis time) ([2]; 6 months): 0.21 Relative Area Percent
- Impurity content, mean variation (t0→analysis time) ([2]; 6 months): 0.12 Relative Area Percent
- Impurity content, max. variation (t0→analysis time) ([2]; 12 months): 0.44 Relative Area Percent
- Impurity content, mean variation (t0→analysis time) ([2]; 12 months): 0.39 Relative Area Percent
- Impurity content, max. variation (t0→analysis time) ([2]; 18 months): 0.85 Relative Area Percent
- Impurity content, mean variation (t0→analysis time) ([2]; 18 months): 0.78 Relative Area Percent
- Impurity content, max. variation (t0→analysis time) ([2]; 24 months): 1.32 Relative Area Percent
- Impurity content, mean variation (t0→analysis time) ([2]; 24 months): 1.13 Relative Area Percent
